Here are results for 4 compounds from ChEMBL document CHEMBL4020733, “Approaches towards the development of chimeric DPP4/ACE inhibitors for treating metabolic syndrome” (Bioorg Med Chem Lett, 2017).

One may read the pIC50 as the negative decadic logarithm of the IC50, by convention in mol/L. A higher pIC50 goes with a small IC50. As a reminder, the Tmax is the time at which the peak concentration occurs. In general, AUC(0-t) refers to exposure summed from dosing to a finite time, without extrapolation to infinity. A high value points to high exposure.

pIC50: −log10 of the molar value. A value given as a limit tells only on which side of the number the result lay.

One data set deals with Cytochrome P450 3A4 (Homo sapiens, UniProt P08684). The data set is described as follows: Inhibition of CYP3A4 (unknown origin) up to 10 uM. It counts as ADME.
Chain of Cytochrome P450 3A4 (P08684 whole entry): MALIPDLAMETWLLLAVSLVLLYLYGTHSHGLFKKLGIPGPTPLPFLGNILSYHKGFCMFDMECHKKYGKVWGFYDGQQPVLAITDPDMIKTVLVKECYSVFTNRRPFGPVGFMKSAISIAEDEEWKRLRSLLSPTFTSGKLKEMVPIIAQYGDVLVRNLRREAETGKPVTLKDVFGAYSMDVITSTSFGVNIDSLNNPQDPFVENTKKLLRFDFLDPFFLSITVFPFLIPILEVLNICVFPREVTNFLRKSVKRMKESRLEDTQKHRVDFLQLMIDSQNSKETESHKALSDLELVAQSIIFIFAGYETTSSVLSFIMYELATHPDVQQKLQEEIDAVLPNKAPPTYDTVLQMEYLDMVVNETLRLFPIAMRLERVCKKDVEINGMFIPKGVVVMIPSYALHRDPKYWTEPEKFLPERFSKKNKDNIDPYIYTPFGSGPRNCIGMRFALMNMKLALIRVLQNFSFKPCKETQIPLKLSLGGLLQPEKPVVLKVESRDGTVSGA
A further data set deals with Neprilysin (Homo sapiens, UniProt P08473). In words: Inhibition of NEP (unknown origin).
Chain of Neprilysin (P08473 whole entry): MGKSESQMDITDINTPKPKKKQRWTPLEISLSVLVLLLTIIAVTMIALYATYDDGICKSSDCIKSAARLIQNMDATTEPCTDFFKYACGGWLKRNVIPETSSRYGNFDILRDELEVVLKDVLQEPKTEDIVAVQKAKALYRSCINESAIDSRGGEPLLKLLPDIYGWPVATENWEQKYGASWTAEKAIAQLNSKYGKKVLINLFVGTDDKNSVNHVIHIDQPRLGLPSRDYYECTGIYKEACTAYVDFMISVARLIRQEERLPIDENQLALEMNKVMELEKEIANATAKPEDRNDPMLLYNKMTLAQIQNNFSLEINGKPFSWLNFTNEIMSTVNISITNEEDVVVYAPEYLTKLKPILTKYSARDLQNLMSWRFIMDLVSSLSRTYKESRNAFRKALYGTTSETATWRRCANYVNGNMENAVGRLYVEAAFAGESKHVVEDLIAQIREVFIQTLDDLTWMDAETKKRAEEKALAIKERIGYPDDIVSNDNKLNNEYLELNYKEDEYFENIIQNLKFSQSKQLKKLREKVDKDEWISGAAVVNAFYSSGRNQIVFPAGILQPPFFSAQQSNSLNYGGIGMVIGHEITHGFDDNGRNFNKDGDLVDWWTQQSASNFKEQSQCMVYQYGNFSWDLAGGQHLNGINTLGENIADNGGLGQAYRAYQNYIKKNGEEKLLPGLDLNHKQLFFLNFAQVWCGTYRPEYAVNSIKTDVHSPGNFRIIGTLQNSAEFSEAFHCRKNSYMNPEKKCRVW
Data set [1] addresses T1, Angiotensin-converting enzyme (Mus musculus, UniProt P09470).
T1 sequence (P09470 whole entry): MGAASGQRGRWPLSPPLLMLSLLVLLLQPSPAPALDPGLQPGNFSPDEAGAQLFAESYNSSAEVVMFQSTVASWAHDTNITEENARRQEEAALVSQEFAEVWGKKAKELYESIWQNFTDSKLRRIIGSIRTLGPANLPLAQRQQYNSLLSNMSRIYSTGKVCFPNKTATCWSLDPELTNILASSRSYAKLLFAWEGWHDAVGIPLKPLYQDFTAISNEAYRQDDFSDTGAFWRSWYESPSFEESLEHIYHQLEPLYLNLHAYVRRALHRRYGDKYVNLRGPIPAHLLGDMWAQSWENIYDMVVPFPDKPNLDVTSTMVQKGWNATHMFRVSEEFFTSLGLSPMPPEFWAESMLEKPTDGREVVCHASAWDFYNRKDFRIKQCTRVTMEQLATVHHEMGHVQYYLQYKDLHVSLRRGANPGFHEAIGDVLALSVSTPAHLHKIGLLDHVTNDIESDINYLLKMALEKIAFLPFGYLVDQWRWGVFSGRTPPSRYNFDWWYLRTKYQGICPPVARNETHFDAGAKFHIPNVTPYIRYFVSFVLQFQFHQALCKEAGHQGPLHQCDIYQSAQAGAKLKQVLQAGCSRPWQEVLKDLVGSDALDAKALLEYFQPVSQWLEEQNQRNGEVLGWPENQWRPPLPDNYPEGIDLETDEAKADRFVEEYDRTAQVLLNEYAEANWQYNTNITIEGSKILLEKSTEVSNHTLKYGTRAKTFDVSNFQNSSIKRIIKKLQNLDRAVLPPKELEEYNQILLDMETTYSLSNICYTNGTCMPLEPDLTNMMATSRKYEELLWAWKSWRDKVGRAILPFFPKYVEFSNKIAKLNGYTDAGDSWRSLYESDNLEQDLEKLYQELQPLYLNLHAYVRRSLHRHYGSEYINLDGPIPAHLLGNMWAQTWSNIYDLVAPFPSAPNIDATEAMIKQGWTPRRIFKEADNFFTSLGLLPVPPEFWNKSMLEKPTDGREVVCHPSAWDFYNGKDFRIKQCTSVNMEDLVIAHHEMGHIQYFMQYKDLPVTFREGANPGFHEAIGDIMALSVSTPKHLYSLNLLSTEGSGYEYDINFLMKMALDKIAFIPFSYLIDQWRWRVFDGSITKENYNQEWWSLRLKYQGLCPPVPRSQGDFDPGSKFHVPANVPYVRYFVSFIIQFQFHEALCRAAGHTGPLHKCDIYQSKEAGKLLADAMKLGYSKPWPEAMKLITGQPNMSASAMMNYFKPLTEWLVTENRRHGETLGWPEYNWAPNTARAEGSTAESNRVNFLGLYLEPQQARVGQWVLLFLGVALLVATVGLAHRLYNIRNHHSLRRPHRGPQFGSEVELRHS
In words: Inhibition of ob/ob mouse plasma ACE.

A further data set concerns the target Aminopeptidase N (Homo sapiens, UniProt P15144). In words: Inhibition of APN (unknown origin).
Data set [2] concerns Liver. In words: Stability in dog liver microsomes. Format: ADME, Canis lupus familiaris, microsome. (Liver microsomes are vesicles of endoplasmic reticulum, rich in cytochrome P450 enzymes.)
Data set [3] is described as follows: Tmax in Wistar rat plasma at 30 mg/kg, po. Format: ADME, organism-based.
The nature of data set [4]: Plasma protein binding in rat. It counts as ADME, cell-free. The note with it: read-out: PPB (converted).
Data set [5] deals with Liver. In words: Stability in human liver microsomes. Format: ADME, microsome.
Data set [6] in a line: AUC (0 to 24 hrs) in Wistar rat plasma at 30 mg/kg, po. It counts as ADME, organism-based. Further details: time < 24 hr, dose 30 mg/kg, route oral; call rule not given here.
In the next data set the target is Dipeptidyl peptidase 8 (Homo sapiens, UniProt Q6V1X1). In words: Inhibition of DPP8 (unknown origin).
Chain of Dipeptidyl peptidase 8 (Q6V1X1 whole entry): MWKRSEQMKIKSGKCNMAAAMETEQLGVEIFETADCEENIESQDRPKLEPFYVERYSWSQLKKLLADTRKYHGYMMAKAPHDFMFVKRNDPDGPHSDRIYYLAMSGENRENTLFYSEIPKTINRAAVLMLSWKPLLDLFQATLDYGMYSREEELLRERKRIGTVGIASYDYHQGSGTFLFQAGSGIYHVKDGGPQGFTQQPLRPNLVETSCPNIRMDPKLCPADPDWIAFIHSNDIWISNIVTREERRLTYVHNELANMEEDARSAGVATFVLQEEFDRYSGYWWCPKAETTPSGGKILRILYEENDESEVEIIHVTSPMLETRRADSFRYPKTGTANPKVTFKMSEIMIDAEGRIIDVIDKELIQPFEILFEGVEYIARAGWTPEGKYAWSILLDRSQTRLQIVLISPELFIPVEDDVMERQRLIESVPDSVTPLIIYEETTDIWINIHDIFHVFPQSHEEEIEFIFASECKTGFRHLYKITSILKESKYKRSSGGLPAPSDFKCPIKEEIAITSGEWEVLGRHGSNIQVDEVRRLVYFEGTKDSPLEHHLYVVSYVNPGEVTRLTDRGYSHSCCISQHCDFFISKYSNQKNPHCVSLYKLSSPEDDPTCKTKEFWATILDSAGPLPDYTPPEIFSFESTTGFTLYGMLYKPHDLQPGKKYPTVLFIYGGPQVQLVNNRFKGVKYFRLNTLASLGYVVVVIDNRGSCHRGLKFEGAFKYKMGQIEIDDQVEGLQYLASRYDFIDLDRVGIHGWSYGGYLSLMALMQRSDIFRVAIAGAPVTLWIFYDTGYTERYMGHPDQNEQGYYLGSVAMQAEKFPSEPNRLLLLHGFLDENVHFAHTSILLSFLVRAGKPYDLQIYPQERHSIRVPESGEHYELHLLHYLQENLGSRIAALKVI
The test system of data set [7] is Liver. In words: Stability in rat liver microsomes. It counts as ADME, microsome.
A further data set addresses T2, Prolyl endopeptidase (Homo sapiens, UniProt P48147).
T2 sequence (P48147 whole entry): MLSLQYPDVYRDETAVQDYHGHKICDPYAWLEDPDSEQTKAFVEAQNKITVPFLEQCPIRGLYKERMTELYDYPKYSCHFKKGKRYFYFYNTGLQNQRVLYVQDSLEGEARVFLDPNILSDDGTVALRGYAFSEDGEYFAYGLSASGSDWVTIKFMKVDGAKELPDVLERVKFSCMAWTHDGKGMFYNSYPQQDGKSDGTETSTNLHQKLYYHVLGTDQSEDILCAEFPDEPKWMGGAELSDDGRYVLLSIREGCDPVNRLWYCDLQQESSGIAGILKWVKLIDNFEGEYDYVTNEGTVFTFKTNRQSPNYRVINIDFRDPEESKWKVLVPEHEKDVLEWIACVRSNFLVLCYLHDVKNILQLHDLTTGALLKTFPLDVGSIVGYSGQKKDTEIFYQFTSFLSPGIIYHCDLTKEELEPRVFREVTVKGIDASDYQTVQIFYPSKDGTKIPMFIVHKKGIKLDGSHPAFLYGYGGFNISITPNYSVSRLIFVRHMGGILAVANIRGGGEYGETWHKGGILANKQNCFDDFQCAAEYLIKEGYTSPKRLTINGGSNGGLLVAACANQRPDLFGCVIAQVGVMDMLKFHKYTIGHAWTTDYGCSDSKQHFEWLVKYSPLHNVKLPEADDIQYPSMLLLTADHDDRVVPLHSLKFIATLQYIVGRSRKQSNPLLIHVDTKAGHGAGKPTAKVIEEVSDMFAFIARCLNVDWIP
The data set is described as follows: Inhibition of PPCE (unknown origin).

Chain of Aminopeptidase N (P15144 whole entry): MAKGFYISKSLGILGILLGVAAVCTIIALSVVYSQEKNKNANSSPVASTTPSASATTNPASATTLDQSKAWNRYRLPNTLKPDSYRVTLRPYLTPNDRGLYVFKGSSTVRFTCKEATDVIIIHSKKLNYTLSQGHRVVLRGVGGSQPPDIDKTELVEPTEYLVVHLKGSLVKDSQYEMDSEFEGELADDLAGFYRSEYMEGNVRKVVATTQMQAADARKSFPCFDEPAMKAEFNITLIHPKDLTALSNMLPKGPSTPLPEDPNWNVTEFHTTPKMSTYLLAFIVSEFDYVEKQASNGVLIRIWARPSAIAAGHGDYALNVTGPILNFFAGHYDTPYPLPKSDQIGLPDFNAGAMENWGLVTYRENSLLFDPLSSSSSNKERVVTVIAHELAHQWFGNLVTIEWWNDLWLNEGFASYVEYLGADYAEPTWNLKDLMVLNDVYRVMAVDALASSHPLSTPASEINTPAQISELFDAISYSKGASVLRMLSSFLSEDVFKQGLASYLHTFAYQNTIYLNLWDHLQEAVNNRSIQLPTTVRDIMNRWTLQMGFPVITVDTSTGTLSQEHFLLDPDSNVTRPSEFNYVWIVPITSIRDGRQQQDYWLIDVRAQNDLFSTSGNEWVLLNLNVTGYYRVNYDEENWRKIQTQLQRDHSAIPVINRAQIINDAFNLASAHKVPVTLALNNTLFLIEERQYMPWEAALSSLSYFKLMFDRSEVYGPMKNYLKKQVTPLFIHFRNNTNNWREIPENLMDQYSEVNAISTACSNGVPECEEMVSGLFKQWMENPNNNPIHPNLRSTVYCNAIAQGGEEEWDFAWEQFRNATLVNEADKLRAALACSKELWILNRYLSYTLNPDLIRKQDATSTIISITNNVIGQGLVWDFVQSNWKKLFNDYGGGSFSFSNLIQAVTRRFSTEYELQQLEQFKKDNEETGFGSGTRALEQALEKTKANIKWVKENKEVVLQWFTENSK

Take `C[C@H](N[C@@H](CCc1ccccc1)C(=O)O)C(=O)N1C[C@@H](NC(=O)C[C@H](N)Cc2cc(F)c(F)cc2F)C[C@H]1C(=O)O`: the “inhibition (INH)” value against Cytochrome P450 3A4 is recorded as “Not Active”. The pIC50 on Neprilysin was under 4.00; in data set [1], 7.24; at Aminopeptidase N it was under 4.00; against Dipeptidyl peptidase 8 it was 4.57. In addition, the Stability entry with Liver [2], in the data set on Liver [5] and in the data set on Liver [7] was “Stable” throughout. Moreover, the Tmax in data set [3] was found to be 1.5 h. In data set [4], the fraction unbound is 0.58. In [6], this compound showed an AUC(0-t) at 24 h of 610 ng·h/mL.

Consider `CCC[C@H](N[C@@H](CCc1ccccc1)C(=O)O)C(=O)N1C[C@@H](NC(=O)C[C@H](N)Cc2cc(F)c(F)cc2F)C[C@H]1C(=O)O`, for which the “inhibition (INH)” value against Cytochrome P450 3A4 is “Not Active”. The pIC50 on Neprilysin was under 4.00; in [1] it was 5.69; against Aminopeptidase N, under 4.00; at Prolyl endopeptidase it was under 4.00; against Dipeptidyl peptidase 8, 4.24. The Stability result in the data set with Liver [2], in the data set with Liver [5] and with Liver [7] was “Stable” each time. For the same compound, the time to peak (Tmax) in data set [3] was 3.3 h. Moreover, in data set [4], the fraction unbound is 0.564. Moreover, the AUC(0-t) at 24 h in [6] worked out at 21500 ng·h/mL.

As for `CC[C@H](N[C@@H](CCc1ccccc1)C(=O)O)C(=O)N1C[C@@H](NC(=O)C[C@H](N)Cc2cc(F)c(F)cc2F)C[C@H]1C(=O)O`, the “inhibition (INH)” value against Cytochrome P450 3A4 is “Not Active”. For the same compound, the negative-log IC50 (pIC50) against Neprilysin is under 4.00; in [1], 7.00; at Aminopeptidase N, under 4.00; on Prolyl endopeptidase, under 4.00; on Dipeptidyl peptidase 8 it was 4.16. Further, the Stability result in the data set on Liver [2], with Liver [5] and in the data set with Liver [7] was “Stable” each time. Moreover, the Tmax in data set [3] turned out to be 1.67 h. Moreover, the fraction unbound in data set [4] is 0.403. The same compound yielded an AUC(0-t) at 24 h in [6] of 2360 ng·h/mL.

Turning to `CCCC[C@H](N[C@@H](CCc1ccccc1)C(=O)O)C(=O)N1C[C@@H](NC(=O)C[C@H](N)Cc2cc(F)c(F)cc2F)C[C@H]1C(=O)O`, on Cytochrome P450 3A4, the “inhibition (INH)” value is “Not Active”. Moreover, the pIC50 is under 4.00 at Neprilysin; 5.66 in [1]; under 4.00 at Aminopeptidase N; under 4.00 against Prolyl endopeptidase; under 4.00 on Dipeptidyl peptidase 8. The Stability result with Liver [2], in the data set with Liver [5] and in the data set on Liver [7] was “Stable” throughout. Also, the time to peak (Tmax) in [3] was found to be 2 h. Further, the fraction unbound in data set [4] is 0.583. Further, in [6], the AUC(0-t) at 24 h came out at 13900 ng·h/mL.
